In ChEMBL document CHEMBL2203270, “POMA analyses as new efficient bioinformatics' platform to predict and optimise bioactivity of synthesized 3a,4-dihydro-3H-indeno[1,2-c]pyrazole-2-carboxamide/carbothioamide analogues” (Bioorg Med Chem Lett, 2012):
In brackets after ≈: the same amount, converted by molar mass.

Experiments:
[1] = tested on: Human immunodeficiency virus 1; assay: Antiviral activity against HIV-1 3B infected in MT4 cells assessed as inhibition of virus-induced cytopathicity; type: functional, organism-based; conditions: Human immunodeficiency virus 1, 3B
[2] = Cytotoxicity against mock-infected human MT4 cells assessed as decrease in cell viability by MTT assay; type: cell-based
[3] = tested on: Human immunodeficiency virus 1; assay: Antiviral activity against HIV-1 3B infected in MT4 cells assessed as protection against virus-induced cytopathicity relative to control; type: functional; conditions: Human immunodeficiency virus 1, 3B
[4] = tested on: Human immunodeficiency virus 2; assay: Antiviral activity against HIV-2 ROD infected in MT4 cells assessed as protection against virus-induced cytopathicity relative to control; type: functional; conditions: Human immunodeficiency virus 2, ISOLATE ROD
[5] = tested on: Human immunodeficiency virus 2; assay: Antiviral activity against HIV-2 ROD infected in MT4 cells assessed as inhibition of virus-induced cytopathicity; type: functional, organism-based; conditions: Human immunodeficiency virus 2, ISOLATE ROD
Bacillus subtilis = assay: Antimicrobial activity against Bacillus subtilis NCIM 2439 by broth dilution technique; type: functional
Aspergillus niger = assay: Antimicrobial activity against Aspergillus niger NCIM 1196 by broth dilution technique; type: functional
Staphylococcus aureus = assay: Antimicrobial activity against Staphylococcus aureus NCIM 2079 by broth dilution technique; type: functional
Candida albicans = assay: Antimicrobial activity against Candida albicans NCIM 3471 by broth dilution technique; type: functional
Escherichia coli = assay: Antimicrobial activity against Escherichia coli NCIM 5051 by broth dilution technique; type: functional
Pseudomonas aeruginosa = assay: Antimicrobial activity against Pseudomonas aeruginosa ATCC 10145 by broth dilution technique; type: functional

| IC50 [1] [µM] | IC50 [5] [µM] | SMILES | CC50 [2] [µM] | Emax [3] [%] | Emax [4] [%] | also measured |
| --- | --- | --- | --- | --- | --- | --- |
| > 136 | > 136 | COc1ccc(C2C3Cc4cc(OC)c(OC)cc4C3=NN2C(=O)Nc2ccc(Br)cc2)cc1 (configuration not stated) | 136 | 3 | 5 | – |
| > 4.83 | > 4.83 | COc1cc2c(cc1OC)C1=NN(C(=O)Nc3ccc(Cl)cc3)C(c3ccncc3)C1C2 (configuration not stated) | 4.83 | 4 | 5 | – |
| > 11 | > 11 | COc1cc2c(cc1OC)C1=NN(C(=O)Nc3ccc(C)cc3C)C(c3ccccc3Cl)C1C2 (configuration not stated) | 11 | 1 | 5 | – |
| > 211 | > 211 | COc1cc2c(cc1OC)C1=NN(C(=O)Nc3c(C)cccc3C)C(c3ccccc3)C1C2 (configuration not stated) | 211 | 4 | 12 | – |
| > 6.47 | > 6.47 | COc1cc2c(cc1OC)C1=NN(C(N)=O)C(c3ccccc3Cl)C1C2 (configuration not stated) | 6.47 | 3 | 3 | MBC (Bacillus subtilis): 256 µg/mL (≈ 688 µM); MIC (Bacillus subtilis): 16 µg/mL (≈ 43 µM); MFC (Aspergillus niger): > 512 µg/mL; MIC (Aspergillus niger): 256 µg/mL (≈ 688 µM); MBC (Staphylococcus aureus): 256 µg/mL (≈ 688 µM); MIC (Staphylococcus aureus): 16 µg/mL (≈ 43 µM); MFC (Candida albicans): > 512 µg/mL; MIC (Candida albicans): 128 µg/mL (≈ 344 µM); MBC (Escherichia coli): 256 µg/mL (≈ 688 µM); MIC (Escherichia coli): 16 µg/mL (≈ 43 µM); MBC (Pseudomonas aeruginosa): 256 µg/mL (≈ 688 µM); MIC (Pseudomonas aeruginosa): 16 µg/mL (≈ 43 µM) |
| > 29.5 | > 29.5 | COc1cc2c(cc1OC)C1=NN(C(=O)Nc3ccc(F)c(Cl)c3)C(c3ccncc3)C1C2 (configuration not stated) | 29.5 | 4 | 2 | – |
| > 86 | > 86 | COc1cc2c(cc1OC)C1=NN(C(=O)Nc3ccc(Br)cc3)C(c3ccccc3)C1C2 (configuration not stated) | 86 | 3 | 10 | – |
| > 145 | > 145 | COc1ccc(C2C3Cc4cc(OC)c(OC)cc4C3=NN2C(=O)Nc2ccc(C)cc2C)cc1OC (configuration not stated) | 145 | 16 | 16 | – |
| > 11.5 | > 11.5 | COc1cc2c(cc1OC)C1=NN(C(=O)Nc3ccc(Br)cc3)C(c3ccccc3Cl)C1C2 (configuration not stated) | 11.5 | 2 | 2 | – |
| > 28.4 | > 28.4 | COc1cc2c(cc1OC)C1=NN(C(=O)Nc3ccc(Cl)cc3)C(c3ccccc3)C1C2 (configuration not stated) | 28.4 | 2 | 19 | – |

Further lines, the compound ahead of its results:

| SMILES | IC50 [1] [µM] | IC50 [5] [µM] | CC50 [2] [µM] | Emax [3] [%] | Emax [4] [%] | also measured |
| --- | --- | --- | --- | --- | --- | --- |
| COc1cc2c(cc1OC)C1=NN(C(=O)Nc3ccc(F)cc3)C(c3ccc(F)cc3)C1C2 (configuration not stated) | > 119 | > 119 | 119 | 4 | 14 | – |
| COc1ccc(C2C3Cc4cc(OC)c(OC)cc4C3=NN2C(=O)Nc2ccc(Br)cc2)cc1OC (configuration not stated) | > 150 | > 150 | 150 | 15 | 39 | – |
| COc1cc2c(cc1OC)C1=NN(C(=O)Nc3ccc(F)cc3)C(c3ccccc3)C1C2 (configuration not stated) | > 68.6 | > 68.6 | 68.6 | 3 | 7 | – |
| COc1cc2c(cc1OC)C1=NN(C(=O)Nc3ccc(C)cc3C)C(c3ccncc3)C1C2 (configuration not stated) | > 25.2 | > 25.2 | 25.2 | 1 | 4 | – |
| COc1cc2c(cc1OC)C1=NN(C(=O)Nc3c(C)cccc3C)C(c3ccccc3Cl)C1C2 (configuration not stated) | > 159 | > 159 | 159 | 4 | 9 | – |
| COc1ccc(C2C3Cc4cc(OC)c(OC)cc4C3=NN2C(=O)Nc2ccc(Cl)cc2)cc1OC (configuration not stated) | > 106 | > 106 | 106 | 4 | 9 | – |
| COc1ccc(C2C3Cc4cc(OC)c(OC)cc4C3=NN2C(=O)Nc2c(C)cccc2C)cc1OC (configuration not stated) | > 182 | > 182 | 182 | 11 | 37 | – |
| COc1ccc(C2C3Cc4cc(OC)c(OC)cc4C3=NN2C(=O)Nc2c(C)cccc2C)cc1 (configuration not stated) | > 169 | > 169 | 169 | 5 | 6 | – |
